Values quoted from earlier work in US20110153027A1, “Drug Delivery System” (Vysera Biomedical Limited, priority 2009, published 2011).

Assays:
[1] = minimum effective concentration
[2] = compared with cyclosporine

SMILES | MEC [1] [µg/mL] | water solubility [2]
Cc1ncc([N+](=O)[O-])n1CCO [Metronidazole] | 8 | higher water solubility than cyclosporine
Sc1ncnc2nc[nH]c12 [6-mercaptopurine] | 1 | 
O=C(O)c1cn(C2CC2)c2cc(N3CCNCC3)c(F)cc2c1=O [Ciprofloxacin] | 0.2 | 
Cn1cnc([N+](=O)[O-])c1Sc1ncnc2nc[nH]c12 [Azathioprine] | 1 | 
